Data on four molecules can be found in patent US20030199424A1, “Method of treatment and/or prophylaxis” (priority 2002, published 2003).

Entries after “also recorded” stand apart in the source; their conditions may differ. Read-outs that look alike come from different tables or passages of the source.

Data set [1] has as its system STZ-diabetic rats. The note with it: given to rats 4 wks after induction of diabetes with STZ (Maxfield et al., 1993); cited from earlier work.
The subject of data set [2] is STZ-diabetic rats. Nature of the data set: Reversal protocol: AT1 antagonist from 12 wks post-STZ, morphine antinociception. The following applies: tested at 16 wks post-STZ.
Method: STZ-diabetic rats (n=18) were allocated to one of three experimental groups. Groups one and two received once-daily oral administration of antihypertensive doses of one of the AT1-antagonists, viz candesartan (2.0 mg/kg/day)or losartan (20 mg/kg/day), commencing at 12 weeks post-STZ administration (day 0). The third group (control STZ-diabetic rats) received no treatment.
(§1) The mean (±SEM) percentage maximum AUC (% Max AUC) was calculated according to the following formula: [formula]
The Mann-Whitney test was used to compare %MAX AUC values between treatment groups. The statistical significance criterion was p<0.05.
Data set [3] deals with STZ-diabetic rats. The note with it: s.c. oxycodone; STZ-diabetic rats over 24 wk study (Smith et al., 2001); cited from earlier work.
Data set [4] addresses T1, CYP2D6 (Homo sapiens, UniProt P10635).
T1 construct: low extent of CYP2D6-mediated O-demethylation of oxycodone to oxymorphone in humans; host or cells: human subjects (in vivo metabolism)
The note with it: humans, CYP2D6-mediated; cited from earlier work.

The subject of data set [5] is STZ-diabetic rats. Nature of the data set: Opioid-mediated antinociception (Von Frey, % MPE) in STZ-diabetic rats. The following applies: for ED50: Rattus norvegicus.
Method: In all cases, opioids were administered by a single s.c. injection (100 μL) into the dorsal region at the base of the neck whilst under light CO2/O2 (50:50%) anaesthesia using a 250 μL Hamilton syringe. […] By contrast, the opioid-naïve, weight-matched, non-diabetic candesartan control rats were given high-dose oral candesartan (2 mg/kg/day) for 7 days before opioid testing was initiated.
Immediately prior to administration of s.c. bolus doses of either opioid, baseline paw withdrawal thresholds were quantified using VFFs in an identical manner to the weekly baseline Von Frey monitoring described above. Following s.c. opioid administration, VFF assessments were performed at the following post-dosing times: 15, 30, 45, 60, 90, 120 and 180 min.
The VFF scores for individual rats were converted to the Percentage of the Maximum Possible Antinociceptive Effect (% MPE), according the following formula (Brady & Holtzmann, 1982): [formula]
as §1
ED50 estimation was facilitated by inclusion of the theoretical maximum and minimum % Max AUC values. The Mann-Whitney test was used to compare %MPE AUC ED50 values between treatment groups. The statistical significance criterion was p<0.05.
Data set [6] deals with non-diabetic rats. Nature of the data set: Opioid-mediated antinociception (Von Frey, % MPE) in non-diabetic control rats. In kind it is in vivo, rat. The following applies: for ED50: Rattus norvegicus. As to the method:
A second group of STZ-diabetic rats received vehicle (DMSO:water 10:90) by oral gavage (protocol-control rats). In the third group, weight-matched, naive, non-diabetic control rats (non-diabetic candesartan control rats) were also treated with candesartan for one wk prior to opioid antinociceptive testing to determine any intrinsic effects of candesartan on baseline pain scores and on opioid-mediated antinociception.
The statistical significance criterion was p<0.05.

A short description of data set [7]: Body weight, metabolic signs and general health of STZ-diabetic rats. The note with it: 24 wks post-STZ rats, cessation of chronic candesartan 2.0 mg/kg/day. In kind it is in vivo, rat. The source says: Induction of STZ-diabetes produced an initial ≈5-10% reduction in (mean±SEM) body weight from 233 (±1.99) g pre-STZ administration to 218 (±3.28) g at 4 wks post-STZ, followed by a gradual return to the pre-study weight over the ensuing 6-mth study period (FIG. 1).
One rat died 5 wks after the cessation of candesartan therapy.

In data set [8] the test system is STZ-diabetic rats. Briefly: Von Frey assessment of tactile allodynia (paw withdrawal threshold). The data set is classed as in vivo, rat. As to the method:
Candesartan treatment was initiated after STZ administration (day 0) but prior to the onset of diabetes. Specifically, candesartan-treated rats received this drug via once-daily oral gavage in one of two dosages: viz a high-dose (2 mg/kg/day) or a low dose (0.5 mg/kg/day). The 2 mg/kg/day dose was chosen on the basis that it is an anti-hypertensive dose both in rats with perfused Ang II-induced hypertension and also in the spontaneously hypertensive rat (SHR) (Nishikawa et al., 1994, Blood Press, Suppl 5: 7-14). The low-dose ([…]) was included to investigate whether a sub-therapeutic dose (in terms of anti-hypertensive activity) of candesartan was efficacious for the treatment of PDN. Once initiated, oral once-daily candesartan was administered every day for 24 wks.
Tactile allodynia, the defining symptom of PDN, manifests as a hypersensitive response to non-noxious stimuli such as touch or light pressure, and was quantified using Von Frey filaments (VFFs). […] However, indirect methods have a questionable correlation with symptomatic severity (Malik et al., 1998, supra; Malik et al., 2001, supra). Therefore direct quantification of symptom severity using VFF assessment was used to obtain clinically relevant end points.
For each antinociceptive testing session, rats were placed in wire mesh metabolic cages (20 cm×20 cm×20 cm) and allowed to acclimatise to the test environment for approximately 10-15 min prior to the commencement of experiments. Calibrated VFFs, delivering a force in the range 2-20 g, were then applied to the plantar surface of the hind-paw to determine the paw withdrawal thresholds defined as the minimum force necessary to elicit a brisk foot withdrawal reflex. Commencing with the VFF delivering the lowest mechanical force, the filament was applied to the plantar surface of the footpad until buckling of the filament was observed. Absence of a response after approximately 3 s prompted application of the next VFF of increasing force to the footpad.
The onset and progression of the development of tactile allodynia in all STZ-diabetic rats were quantified by once weekly VFF paw withdrawal testing. Specifically for each rat, three separate assessments of paw withdrawal thresholds were undertaken, each approximately 5 min apart.

Setting [9] is: oxycodone 2.0 mg/kg s.c., candesartan (0.5 mg/kg/day) treated STZ-diabetic rats, 12 wks post-STZ.
[10] abbreviates: oxycodone 2.0 mg/kg s.c., candesartan (0.5 mg/kg/day) treated STZ-diabetic rats, 21 wks post-STZ.
Where [11] appears, read: oxycodone 2.0 mg/kg s.c., candesartan (0.5 mg/kg/day) treated STZ-diabetic rats, 24 wk post-STZ.
[12] abbreviates: oxycodone 2.0 mg/kg s.c., control STZ-diabetic rats, 9 wks post-STZ.
Where [13] appears, read: oxycodone 2.0 mg/kg s.c., control STZ-diabetic rats, 12 wks post-STZ.
Setting [14] is: oxycodone […] s.c., candesartan (0.5 mg/kg/day) treated STZ-diabetic rats, 3 wks post-STZ.
Where [15] appears, read: oxycodone […] s.c., candesartan (0.5 mg/kg/day) treated STZ-diabetic rats, 9 wks post-STZ.
Setting [16] is: oral candesartan 2 mg/kg/day once daily, 24 wk post-STZ study period, relative to non-diabetic control rats.
The mark [17] stands for this setting: oral candesartan 0.5 mg/kg/day, by 22 wks post-STZ.

T1 sequence (P10635 whole entry): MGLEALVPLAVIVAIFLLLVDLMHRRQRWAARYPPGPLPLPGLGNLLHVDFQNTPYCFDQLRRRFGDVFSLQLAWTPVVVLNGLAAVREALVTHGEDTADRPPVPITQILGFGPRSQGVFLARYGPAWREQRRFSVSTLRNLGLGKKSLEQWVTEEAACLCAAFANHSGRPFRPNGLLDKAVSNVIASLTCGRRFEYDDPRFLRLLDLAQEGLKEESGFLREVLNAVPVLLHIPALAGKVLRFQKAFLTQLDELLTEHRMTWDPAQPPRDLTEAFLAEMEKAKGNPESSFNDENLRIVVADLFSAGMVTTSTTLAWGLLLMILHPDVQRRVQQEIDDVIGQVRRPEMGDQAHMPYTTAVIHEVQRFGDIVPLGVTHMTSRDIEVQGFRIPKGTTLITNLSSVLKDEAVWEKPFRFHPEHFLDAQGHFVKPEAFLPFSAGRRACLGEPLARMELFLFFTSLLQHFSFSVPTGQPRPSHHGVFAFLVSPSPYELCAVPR

Regarding `CCc1cc2c(c(OCc3ccc(-c4ccccc4-c4nnn[nH]4)cc3)c1)CCCC2` [ZD 8731], in data set [1], the “Nerve blood flow (NBF) deficits” value was “significant improvements” and the “Reduction in nerve conduction velocity (NCV)” value is recorded as “completely reverses”.
For `CCCCc1nc(Cl)c(CO)n1Cc1ccc(-c2ccccc2-c2nnn[nH]2)cc1` [losartan], in data set [2] (oral losartan 20 mg/kg/day for 4 wks commencing 12 wks post-STZ), the “Effect on morphine's antinociceptive effects (s.c. morphine 6.1 mg/kg)” value is on record as “preserved morphine's antinociceptive effects; also recorded: morphine sensitivity was preserved”.
As a reminder, the ED50 is the dose at which the effect has come halfway, by size or by number of responders. Turning to `COc1ccc2c3c1O[C@H]1C(=O)CC[C@@]4(O)[C@@H](C2)N(C)CC[C@]314` [oxycodone], the “decrease in potency relative to non-diabetic control rats” value in data set [3] was 4 fold. Further, the “fraction of each dose O-demethylated to oxymorphone” value in data set [4] is less than 5%. Besides, the ED50 in data set [5] (504 h, read-out: mean (±SEM) ED50 of s.c. oxycodone) is 1.4 mg/kg; in data set [5] (1512 h, read-out: mean (±SEM) ED50 of s.c. oxycodone) it was 1.3 mg/kg; in data set [5] (4032 h, read-out: mean (±SEM) ED50 of s.c. oxycodone) it was 1.1 mg/kg; in data set [5] (sc, 504 h, read-out: approximate ED50 oxycodone dose), roughly 1.5 mg/kg; in data set [5] (sc, 2016 h, read-out: approximate ED50 oxycodone dose), roughly 2 mg/kg; in data set [5] (sc, 4032 h, read-out: approximate ED50 oxycodone dose) it was roughly 3.2 mg/kg. Besides, the 50% effective dose (ED50) is 1.2 mg/kg in data set [6] (sc, control untreated non-diabetic rats, read-out: mean (±SEM) ED50 of s.c. oxycodone) and 1.1 mg/kg in data set [6] (non-diabetic control rats on high-dose oral candesartan 2.0 mg/kg/day, read-out: ED50 of s.c. oxycodone). Further, the “Mean (±SEM) % MPE AUC” value in data set [5] (setting [9]) was 116 (±8.2) % MPE.h; in data set [5] (setting [10]), 171 (±8.3) % MPE.h; in data set [5] (setting [11]) it was 145 (±13.0) % MPE.h; in data set [5] (setting [12]), 162 (±3.2) % MPE.h; in data set [5] (setting [13]) it was 168 (±5.2) % MPE.h; in data set [5] (oxycodone 2.2** mg/kg s.c., candesartan (2.0 mg/kg/day) treated STZ-diabetic rats, 12 wks post-STZ), 158 (±6.9) % MPE.h. Besides, the “Mean (±SEM) % MPE AUC” value in data set [5] (oxycodone […] s.c., STZ-diabetic rats, 4 wks candesartan (2.0 mg/kg/day) re-initiation) was 157 (±8.5) % MPE.h; in data set [5] (setting [14]) it was 131 (±7.9) % MPE.h; in data set [5] (setting [15]), 122 (±9.1) % MPE.h; in data set [5] (oxycodone […] s.c., candesartan (2.0 mg/kg/day) treated STZ-diabetic rats, 3 wks post-STZ) it was 120 (±8.9) % MPE.h; in data set [5] (oxycodone […] s.c., candesartan (2.0 mg/kg/day) treated STZ-diabetic rats, 9 wks post-STZ), 136 (±13.3) % MPE.h; in data set [6] (oxycodone […] s.c., candesartan (2.0 mg/kg/day) treated non-diabetic rats), 155 (±8.5) % MPE.h. Further, the “Mean (±SEM) dose normalised % MPE AUC” value is 67.70 (±4.111) % MPE AUC.h.kg.mg^−1 in data set [5] (setting [9]); 85.34 (±4.134) % MPE AUC.h.kg.mg^−1 in data set [5] (setting [10]); 72.45 (±6.527) % MPE AUC.h.kg.mg^−1 in data set [5] (setting [11]); 80.8 (±1.6) % MPE AUC.h.kg.mg^−1 in data set [5] (setting [12]); 84.2 (±2.6) % MPE AUC.h.kg.mg^−1 in data set [5] (setting [13]); 109.5 (±6.549) % MPE AUC.h.kg.mg^−1 in data set [5] (setting [14]). The “Mean (±SEM) dose normalised % MPE AUC” value in data set [5] (setting [15]) is listed as 102.1 (±7.611) % MPE AUC.h.kg.mg^−1; in data set [5] (oxycodone […] s.c., control STZ-diabetic rats, 3 wks post-STZ), 115.5 (±3.1) % MPE AUC.h.kg.mg^−1; in data set [5] (oxycodone […] s.c., control STZ-diabetic rats, 24 wks post-STZ) it was 44.1 (±2.4) % MPE AUC.h.kg.mg^−1. In data set [5] (oxycodone […] s.c., candesartan (2.0 mg/kg/day) STZ-diabetic rats, 3 wks post-STZ), the “decrease in antinociceptive response (%MPE AUC) versus non-diabetic protocol control rats” value is on record as “≈ 20%”. In addition, in data set [5] (oxycodone […], candesartan (0.5 mg/kg/day) STZ-diabetic rats, 9 wks post-STZ), the “decrease in oxycodone potency versus non-diabetic protocol control rats” value came out at 20%. In addition, the “decrease in potency versus protocol controls” value in data set [5] (oxycodone, candesartan (0.5 mg/kg/day) STZ-diabetic rats, by 12 wks post-STZ) is recorded as roughly 50%. In addition, the “decrease in dose-normalised %MPE AUC versus protocol-control non-diabetic rats” value in data set [5] (oxycodone, low-dose candesartan (0.5 mg/kg/day) STZ-diabetic rats, 24 wks post-STZ) is roughly 1.5 fold.
Regarding candesartan, the “Effect on morphine's antinociceptive effects (s.c. morphine 6.1 mg/kg)” value in data set [2] (oral candesartan 2 mg/kg/day for 4 wks commencing 12 wks post-STZ) is on record as “preserved morphine's antinociceptive effects; also recorded: morphine sensitivity was preserved”. In addition, the “Effect on loss of morphine potency” value in data set [5] (oral candesartan 0.5 mg/kg/day once daily, relative to control untreated STZ-diabetic rats) is recorded as “attenuated the loss of morphine potency”. Moreover, in data set [5] (setting [16]), the “Effect on temporal loss of morphine potency and efficacy” value is “completely prevented the temporal loss of morphine potency and efficacy”. For the same molecule, in data set [5] (setting [16]), the “Effect on temporal loss of oxycodone potency and efficacy” value is “completely prevented the temporal loss of oxycodone potency and efficacy”. Besides, the “Physical appearance and health after cessation of treatment” value in data set [7] is “apparent general decline in the physical appearance and health”. Moreover, the “Mean (±SEM) paw withdrawal threshold” value was 11.9 (±0.2) g in data set [8] (24 wks post-STZ on oral candesartan 2.0 mg/kg/day, immediately prior to cessation); 6.0 (±0.3) g in data set [8] (six wks after cessation of chronic oral candesartan 2.0 mg/kg/day); 11.3 ± 0.1 g in data set [8] (within two wks of re-initiation of oral candesartan 2.0 mg/kg/day). Moreover, the figures for the “Development of tactile allodynia (Von Frey filaments)” value in data set [8] (oral candesartan 0.5 mg/kg/day once daily for 24 wks from STZ administration) and in data set [8] (oral candesartan 2.0 mg/kg/day once daily for 24 wks from STZ administration) were “only delayed but did not prevent the development of tactile allodynia” and “completely attenuated the development of tactile allodynia”, respectively. Moreover, the “Paw withdrawal latencies versus rats given high-dose candesartan” value in data set [8] (setting [17]) is “significantly lower”. In addition, the “Paw withdrawal thresholds versus untreated STZ-diabetic control rats” value in data set [8] (setting [17]) is on record as “not significantly different”. Also, the “Mean paw withdrawal threshold versus non-diabetic control rodents” value in data set [8] (oral candesartan 2.0 mg/kg/day, 24 wks post-STZ) is “not significantly different”. In data set [8] (re-initiation of oral candesartan 2.0 mg/kg/day for six wks after six wks cessation), the “Paw withdrawal thresholds after re-initiation of treatment” value is given as “restored the paw withdrawal thresholds”.
